Test results reported in ChEMBL document CHEMBL3608308, “Design, synthesis and antiproliferative activity of novel heterobivalent hybrids based on imidazo[2,1-b][1,3,4]thiadiazole and imidazo[2,1-b][1,3]thiazole scaffolds” (Eur J Med Chem, 2015).
pIC50: −log10 of the molar value. The source made the active and inactive calls. The calls are words filed in the database; no cut-off is given here.

Tests used:
SK-MEL-1 = assay: Cytotoxicity against human SK-MEL-1 cells assessed as reduction in cell viability incubated for 72 hrs by MTT assay; assay type: functional, cell-based; details: for pIC50: SK-MEL-1, 72 h
L1210 [1] = assay: Antiproliferative activity against mouse L1210 cells assessed as inhibition of cell proliferation incubated for 2 days by Coulter counter based assay; assay type: functional; details: L1210, 48 h
FM3A = assay: Antiproliferative activity against mouse FM3A cells assessed as inhibition of cell proliferation incubated for 2 days by Coulter counter based assay; assay type: functional; details: 48 h
CCRF-CEM = assay: Antiproliferative activity against human CEM cells assessed as inhibition of cell proliferation incubated for 3 days by Coulter counter based assay; assay type: functional; details: 72 h
HeLa = assay: Antiproliferative activity against human HeLa cells assessed as inhibition of cell proliferation incubated for 4 days by Coulter counter based assay; assay type: functional; details: 96 h
HL-60 [2] = assay: Cytotoxicity against human HL60 cells assessed as reduction in cell viability incubated for 72 hrs by MTT assay; assay type: functional, cell-based; details: for pIC50: HL-60, 72 h
U-937 [3] = assay: Cytotoxicity against human U937 cells assessed as reduction in cell viability incubated for 72 hrs by MTT assay; assay type: functional, cell-based; details: for pIC50: U-937, 72 h
U-937 [4] = assay: Cytotoxicity against human U937 cells over-expressing human Bcl-2 assessed as reduction in cell viability incubated for 72 hrs by MTT assay; assay type: functional, cell-based; details: for pIC50: U-937, 72 h
HL-60 [5] = assay: Induction of apoptosis in human HL60 cells assessed as induction of morphological changes by inverted phase contrast microscopy; assay type: functional, cell-based
U-937 [6] = assay: Induction of apoptosis in human U937 cells assessed as induction of morphological changes by inverted phase contrast microscopy; assay type: functional, cell-based
U-937 [7] = assay: Induction of apoptosis in human U937 cells over-expressing human Bcl-2 assessed as induction of morphological changes by inverted phase contrast microscopy; assay type: functional, cell-based
U-937 [8] = assay: Induction of apoptosis in human U937 cells assessed as induction of cell shrinkage at 3 uM incubated for 8 hrs by Hoechst 33258 staining based fluorescent microscopy; assay type: functional
U-937 [9] = assay: Induction of apoptosis in human U937 cells assessed as induction of increase in condensed and fragmented chromatin at 3 uM incubated for 8 hrs by Hoechst 33258 staining based fluorescent microscopy; assay type: functional, cell-based
U-937 [10] = assay: Induction of apoptosis in human U937 cells assessed as induction of increase in apoptotic bodies at 3 uM incubated for 8 hrs by Hoechst 33258 staining based fluorescent microscopy; assay type: functional, cell-based
U-937 [11] = assay: Induction of apoptosis in human U937 cells over-expressing human Bcl-2 assessed as induction of cell shrinkage at 3 uM incubated for 8 hrs by Hoechst 33258 staining based fluorescent microscopy; assay type: functional
U-937 [12] = assay: Induction of apoptosis in human U937 cells over-expressing human Bcl-2 assessed as induction of increase in condensed and fragmented chromatin at 3 uM incubated for 8 hrs by Hoechst 33258 staining based fluorescent microscopy; assay type: functional, cell-based
U-937 [13] = assay: Induction of apoptosis in human U937 cells over-expressing human Bcl-2 assessed as induction of increase in apoptotic bodies at 3 uM incubated for 8 hrs by Hoechst 33258 staining based fluorescent microscopy; assay type: functional, cell-based
HL-60 [14] = assay: Induction of apoptosis in human HL60 cells assessed as hypodiploid cells level at 1 uM incubated for 24 hrs by propidium iodide staining based flow cytometry (reference value: 2.6 +/- 0.6%); assay type: functional
HL-60 [15] = assay: Induction of apoptosis in human HL60 cells assessed as hypodiploid cells level at 1 uM incubated for 24 hrs by propidium iodide staining based flow cytometry relative to untreated control; assay type: functional
HL-60 [16] = assay: Induction of DNA laddering in human HL60 cells at 3 to 10 uM incubated for 24 hrs by ethidium bromide staining based gel electrophoresis method; assay type: functional, cell-based
HL-60 [17] = assay: Induction of apoptosis in human HL60 cells assessed as hypodiploid cells level at 1 and 10 uM incubated for 24 hrs by propidium iodide staining based flow cytometry; assay type: functional, cell-based
HL-60 [18] = assay: Induction of apoptosis in human HL60 cells assessed as increase in cytochrome c release into cytosol at 3 uM incubated for 8 hrs by immunoblot method; assay type: functional, cell-based
U-937 [19] = assay: Induction of apoptosis in human U937 cells assessed as increase in cytochrome c release into cytosol at 3 uM incubated for 8 hrs by immunoblot method; assay type: functional, cell-based
U-937 [20] = assay: Induction of apoptosis in human U937 cells over-expressing human Bcl-2 assessed as increase in cytochrome c release into cytosol at 3 uM incubated for 8 hrs by immunoblot method; assay type: functional, cell-based
HL-60 [21] = assay: Induction of apoptosis in human HL60 cells assessed as cleavage of pro-caspase-9 at 3 uM incubated for 8 hrs by immunoblot method; assay type: functional, cell-based
HL-60 [22] = assay: Induction of apoptosis in human HL60 cells assessed as cleavage of pro-caspase-8 at 3 uM incubated for 8 hrs by immunoblot method; assay type: functional, cell-based
HL-60 [23] = assay: Induction of apoptosis in human HL60 cells assessed as cleavage of pro-caspase-3 at 3 uM incubated for 8 hrs by immunoblot method; assay type: functional, cell-based
U-937 [24] = assay: Induction of apoptosis in human U937 cells assessed as cleavage of pro-caspase-9 at 3 uM incubated for 8 hrs by immunoblot method; assay type: functional, cell-based
U-937 [25] = assay: Induction of apoptosis in human U937 cells assessed as cleavage of pro-caspase-8 at 3 uM incubated for 8 hrs by immunoblot method; assay type: functional, cell-based
U-937 [26] = assay: Induction of apoptosis in human U937 cells assessed as cleavage of pro-caspase-3 at 3 uM incubated for 8 hrs by immunoblot method; assay type: functional, cell-based
HL-60 [27] = assay: Induction of apoptosis in human HL60 cells assessed as cleavage of pro-caspase-3/7 activity at 3 uM incubated for 8 hrs DEVD-pNA chromogenic substrate proteolytic cleavage assay; assay type: functional
L1210 [28] = assay: Cytotoxicity against mouse L1210 cells; assay type: functional, cell-based

Structure (SMILES)	Activity (SK-MEL-1)	pIC50 (SK-MEL-1)	pIC50 (L1210 [1])	pIC50 (FM3A)	pIC50 (CCRF-CEM)	pIC50 (HeLa)	Activity (HL-60 [2])	pIC50 (HL-60 [2])	Activity (U-937 [3])	pIC50 (U-937 [3])	Activity (U-937 [4])	pIC50 (U-937 [4])	Activity (HL-60 [5])	Activity (U-937 [6])	Activity (U-937 [7])	Activity (U-937 [8])	Activity (U-937 [9])	Activity (U-937 [10])	Activity (U-937 [11])	Activity (U-937 [12])	also measured
C=C(Br)C(=O)Nc1cccc(-c2cn3nc(-c4ccc(F)cc4)sc3n2)c1	Dose-dependent effect	5.96	6.60	6.21	6.08	6.06	Dose-dependent effect	6.28	Dose-dependent effect	6.25	Dose-dependent effect	6.43	Active	Active	Active	Active	Active	Active	Active	Active	Activity (U-937 [13]): Active; Activity (HL-60 [14]): 12.1%; fold change (FC) (HL-60 [15]): 4.6; Activity (HL-60 [16]): inactive; Activity (HL-60 [17]): Dose-dependent effect; Activity (HL-60 [18]): Active; Activity (U-937 [19]): Active; Activity (U-937 [20]): Active; Activity (HL-60 [21]): Active; Activity (HL-60 [22]): Active; Activity (HL-60 [23]): Active; Activity (U-937 [24]): Active; Activity (U-937 [25]): Active; Activity (U-937 [26]): Active; fold change (FC) (HL-60 [27]): 2.3
C=C(Br)C(=O)O																					pIC50 (L1210 [28]): < 3.92
C=C(Br)C(=O)Nc1cccc(-c2cn3c(-c4ccc(OC)cc4)csc3n2)c1	Dose-dependent effect	6.00	6.70	6.21	6.30	6.07	Dose-dependent effect	6.21	Dose-dependent effect	6.20	Dose-dependent effect	6.43	Active	Active	Active	Active	Active	Active	Active	Active	Activity (U-937 [13]): Active; Activity (HL-60 [14]): 11.1%; fold change (FC) (HL-60 [15]): 4; Activity (HL-60 [16]): inactive; Activity (HL-60 [17]): Dose-dependent effect; Activity (HL-60 [18]): Active; Activity (U-937 [19]): Active; Activity (U-937 [20]): Active; Activity (HL-60 [21]): Active; Activity (HL-60 [22]): Active; Activity (HL-60 [23]): Active; Activity (U-937 [24]): Active; Activity (U-937 [25]): Active; Activity (U-937 [26]): Active; fold change (FC) (HL-60 [27]): 3.8
C=C(Br)C(=O)Nc1cccc(-c2cn3nc(-c4ccc(OC)c(OC)c4)sc3n2)c1	Dose-dependent effect	6.11	7.38	6.96	6.42	6.21	Dose-dependent effect	6.68	Dose-dependent effect	6.57	Dose-dependent effect	6.68	Active	Active	Active	Active	Active	Active	Active	Active	Activity (U-937 [13]): Active; Activity (HL-60 [14]): 16%; fold change (FC) (HL-60 [15]): 6; Activity (HL-60 [16]): inactive; Activity (HL-60 [17]): Dose-dependent effect; Activity (HL-60 [18]): Active; Activity (U-937 [19]): Active; Activity (U-937 [20]): Active; Activity (HL-60 [21]): Active; Activity (HL-60 [22]): Active; Activity (HL-60 [23]): Active; Activity (U-937 [24]): Active; Activity (U-937 [25]): Active; Activity (U-937 [26]): Active; fold change (FC) (HL-60 [27]): 3.2
